Laboratory results published in patent US20190300868A1, “COMPOSITIONS AND METHODS FOR CRISPR-BASED SCREENING” (The Regents of the University of California, priority 2016, published 2019).

Key:
[1] = test system: mCherry reporter of IRE1α activation; assay: UPRE mCherry / EF1α GFP reporter in K562 reporter cells (cBA011), flow cytometry; type: cell-based, human; details: K562 reporter cells (cBA011) treated with tunicamycin
K562 cells = assay: Viability of cells loaded onto the device after chemical treatment (epistasis experiment); type: cell-based, human
Experimental: (§1) For the perturb-seq epistasis experiment, seven three-guide vectors targeting every possible combination of ATF6, IRE1α, and PERK as well as two independent three-guide vectors with three negative control guide RNAs and different barcodes were individually packaged into lentiviruses. Freshly produced (i.e. not frozen) lentiviruses were spinfected into cBA007 cells (at 33° C. for 2 h at 1000×g) in media supplemented with 8 μg/mL polybrene. The virus was removed by centrifugation and cells were resuspended in fresh media. Three days after infection, transduction efficiencies of 5-10% were measured by flow cytometry. Cells were combined into a pool with equal numbers of transduced (BFP+) cells for each vector (resulting in 2-fold excess of negative control vectors) and the combined cells were then sorted on a BD 63 FACS Aria2 to near purity. To limit heterogenous effects of cell microenvironments caused by cell settling, the sorted cells were grown with continuous agitation on an orbital shaker. Five days after infection, the pooled and sorted cells were split into three populations, which were treated as follows: 1) DMSO control treatment for 6 hr; 2) treatment with 4 μg/mL tunicamycin for 6 hr; and 3) treatment with 100 nM thapsigargin for 4 hr. […]

CHOP mRNA = assay: RT-qPCR of CHOP mRNA in sgRNA-transduced cells +/- thapsigargin; type: cell-based, human; details: cells transduced with SEC61A1-, SEC61B-, or SEC61G-targeting sgRNAs; 0.5 μM Tg for 1.5 hours
Experimental: RT-qPCR and semi-quantitative PCR for XBP1 mRNA splicing Cells were harvested and total RNA was isolated using TRIzol® Reagent (ThermoFisher Scientific, 15596-018) and Phase Lock Gel tubes (VWR, 10052-170) or NucleoSpin® RNA (Macherey-Nagel, 67 740955.50) essentially according to manufacturers' instructions. RNA prepared by TRIzol® extraction was treated with TURBO™ DNase (ThermoFisher Scientific). RNA was converted to cDNA using SuperScript® II or SuperScript® III Reverse Transcriptase (ThermoFisher Scientific) under standard conditions with oligo(dT) primers or random hexamers with or without RNaseOUT™ Recombinant Ribonuclease Inhibitor (ThermoFisher Scientific). Quantitative PCR reactions were prepared with 1× master mix containing 1× Colorless GoTaq® Reaction Buffer (Promega, M792A), MgCl2 (0.7 mM), dNTPs (0.2 mM each), primers (0.75 μM each), and 1000× SYBR Green with GoTaq® DNA polymerase (Promega, M830B) in 22 μL reactions. Reactions were run on a LightCycler® 480 Instrument (Roche). Semi-quantitative XBP1-specific PCR reactions were prepared with 2 μL of cDNA diluted 1:10 using a master mix containing 0.9× Colorless GoTaq® Reaction Buffer (Promega, M792A), dNTPs (0.23 mM each), primers (0.45 μM each) with GoTaq® DNA polymerase (Promega, M830B) in 22.1 μL reactions. […]

[2] = test system: K562 cells with dCas9-KRAB; assay: Single-cell RNA-seq cell cycle analysis of thapsigargin-treated cells; type: cell-based, human; details: thapsigargin treatment, UPR epistasis experiment
Experimental: as §1, with “purity.” for “purity. To limit heterogenous effects of cell microenvironments caused by cell settling, the sorted cells were grown with continuous agitation on an orbital shaker. Five days after infection, the pooled and sorted cells were split into three populations, which were treated as follows: 1) DMSO control treatment for 6 hr; 2) treatment with 4 μg/mL tunicamycin for 6 hr; and 3) treatment with 100 nM thapsigargin for 4 hr.”
Single-cell analysis in FIG. 3 A population consisting of cells treated with 100 nM thapsigargin in each of our 8 genetic backgrounds was formed, along with DMSO-treated control cells. As outlined in the “Low cell count/inviable cell removal” section, cells with substantially lower than average UMI counts or that scored strongly for inviability markers from analysis were removed, as these groups partitioned away from the rest of the population in preliminary analyses. […]

[3] = test system: genomically integrated GFP; assay: GFP knockdown by sgRNA expression vectors, flow cytometry; type: cell-based, human; details: paired with EGFP-NT2 protospacer; cr2 from mU6, cr3 from hU6 promoter
mRFP = assay: E. coli CRISPRi reporter strain, knockdown of mRFP by constant region variants; type: cell-based; details: mRFP-targeting protospacer
Description: Design and cloning of constant region variants for testing in E. coli. Constant region bases to mutate were identified by inspection of the crystal structure of Cas9 bound to guide RNA and target DNA (FIG. 9D, PDB ID codes 4OO8, 4UN3, 4ZT0 (Nishimasu et al. 2014, Anders et al. 2014, Jiang et al. 2015)). […] If applicable, sequence conservation patterns of the base in crRNAs/tracrRNAs of Streptococcus species and previous reports of constant regions carrying changes at the base (Briner et al. 2014, Dang et al. 2015) were used to determine the type of mutation. In this fashion, 15 constant region variants with mutations in different parts of the constant region were designed (FIG. 2D). The most diverse constant region variants cr2 and cr3 were designed by combining multiple individual mutations (FIG. 2D). To rapidly assess the activity of the variant constant regions, the variants were fused to a mRFP-targeting guide RNA (mRFP-NT1, sequence […] (SEQ ID NO: 36)) (Qi et al. 2013) and tested in an E. coli CRISPRi reporter strain for knockdown of mRFP (see below). To eliminate variability from copy number variation, guide RNAs were cloned into a plasmid for site-specific integration into the E. coli genome at attL and expressed from single copy from an IPTG-inducible PLlacO-1 promoter (Lutz, Bujard 1997). […]

tunicamycin was tested, and the “XBP1-dependent mCherry induction” value [1] was at most 16 fold, the “induction of GFP (EF1a promoter control reporter)” value [1] was “no similar induction” and the “viable cells loaded onto the device” value (K562 cells; 4 μg/mL tunicamycin for 6 hr or 100 nM thapsigargin for 4 hr) was 87.9%.

With C/C=C(/C)C(=O)O[C@H]1C(C)=C2[C@H]([C@@H]1OC(=O)CCCCCCC)[C@@](C)(OC(C)=O)C[C@H](OC(=O)CCC)[C@@]1(O)[C@H]2OC(=O)[C@@]1(C)O [thapsigargin] the CHOP expression (CHOP mRNA) was “CHOP upregulation”, the cell cycle effect [2] was “PERK-dependent cell cycle arrest in G1” and the “viable cells loaded onto the device” value (K562 cells; human, 4 hr, 100 nM) was 85.3%.

B1: cr2: sgRNA constant region, combination of 3, 5, 9, 15, SEQ ID NO: 25 (nucleic acid)
chain: GTTTGAGAGCTAAGCAGAAAGCTGCATAGCAAGTTCAAATAAGGCTAGTCCGTACACAACTTGAAAAAGTGGCAGCCGAGTCGGCTGCTTTTTTT
modifications: expressed or natural sequence
With B1 the “GFP depletion in K562 cells” value [3] was “indistinguishable from that of the Perturb-seq vector” and the “function of constant region in bacteria” value (mRFP) was “functional in bacteria”.

B2: cr3: sgRNA constant region, combination of 2, 4, 10, 14, SEQ ID NO: 26 (nucleic acid)
chain: GTTTCAGAGCTAAGCACAAGAGTGCATAGCAAGTTGAAATAAGGCTAGTCCGTTTACAACTTGAAAAAGTGGCACCCGAGTCGGGTGCTTTTTTT
modifications: expressed or natural sequence
With B2 the “GFP depletion in K562 cells” value [3] was “indistinguishable from that of the Perturb-seq vector” and the “function of constant region in bacteria” value (mRFP) was “functional in bacteria”.
